In PMC3581553, “New Approaches of PARP-1 Inhibitors in Human Lung Cancer Cells and Cancer Stem-Like Cells by Some Selected Anthraquinone-Derived Small Molecules” (PLoS ONE, 2013):
pIC50: −log10 of the molar value. Where two headings read alike, the source gives them in different places.

What was measured:
HOP-62 = experiment: NCI-60 drug screen (SRB), NSCLC line HOP-62; type: cell-based, human; conditions: for GI50 / CC50: Homo sapiens; for CC50: read-out: LC50 (the source's name)
Method: (§1) As a primary screening, seven selected compounds were submitted to the National Cancer Institute (NCI) cell lines screen for evaluation of their anticancer activity. From the data analysis, it follows that approximately 95% of the actives from the 60 cell lines screen can be identified. The detailed methods used for the 60 cell lines panel have been described elsewhere [54]–[59]. Briefly, cellular protein levels were determined after 48 hours of drug exposure by SRB colorimetry. Through the use of a time zero cell control, the cell growth can be determined for each cell line thus allowing calculations of GI50, TGI, and LC50. Comparison to plates not exposed to drug permits determination of concentration and times of exposure conferring GI50, TGI, and LC50. […] By these criteria, seven compounds reported from our compounds bank were all active and passed on for evaluation in the full panel of 60 human tumor cell lines. The panel is organized into nine subpanels representing diverse histology: leukemia, melanoma, and cancers of the lung, colon, kidney, ovary, breast, prostate, and central nervous system.

EKVX = experiment: NCI-60 drug screen (SRB), NSCLC line EKVX; type: cell-based, human; conditions: for LC50 / GI50: Homo sapiens
Method: as §1

HEL299 cells = experiment: MTT cytotoxicity assay, HEL299 normal fibroblasts; type: cell-based; conditions: Homo sapiens, HEL 299, 48 h of drug exposure
Method: Non-small cell lung cancer cells A549 and Oct-4- and Nanog-overexpressed A549 clone (clone #3; A3), presented the properties of cancer stem-like cells, as well as epithelial-mesenchymal transdifferentiation, according to our previous study. They were grown in the same conditions as RPMI 1640 media supplemented with 10% fetal bovine serum (FBS), 100 units/mL penicillin, […] streptomycin, 1 mM sodium pyruvate, 2 mM l-glutamine and 1% non-essential amino acid (NEAA) in a humidified atmosphere with 5% CO2 at 37°C. Normal fibroblast cells HEL299 from American Type Culture Collection (ATCC) were grown in MEM media supplemented with 10% FBS, 100 units/mL penicillin, […] streptomycin, 1 mM sodium pyruvate, 2 mM l-glutamine and 1% NEAA, in a humidified atmosphere with 5% CO2 at 37°C.
The tetrazolium reagent (MTT; 3-(4,5-dimethylthiazol-2-yl)-2,5-diphenyl-tetrazolium bromide, USB) was designed to yield a colored formazan upon metabolic reduction by viable cells, [61]. Approximately 5×10^4 cells were plated onto each well of a 24-well plate and incubated in 5% CO2 at 37°C for 24 hours. To assess the in vitro cytotoxicity, each compound was dissolved in DMSO and prepared immediately before the experiments and then was diluted into the complete medium before being added to cell cultures. Test compounds were then added to the culture medium in various designated concentrations. After 48 hours, an amount of 100 µl of MTT was added to each well, and the samples were incubated at 37°C for 2 h. 100 µl DMSO was added to each well. The absorbency at 560 nm and reference absorbency at 670 nm were measured using an ELISA reader.

NCI-H522 = experiment: NCI-60 drug screen (SRB), NSCLC line NCI-H522; type: cell-based, human; conditions: for GI50 / CC50: Homo sapiens; for CC50: read-out: LC50 (the source's name)
Method: as §1

HOP-92 = experiment: NCI-60 drug screen (SRB), NSCLC line HOP-92; type: cell-based, human; conditions: for GI50 / CC50: Homo sapiens; for CC50: read-out: LC50 (the source's name)
Method: as §1

NCI-H322M = experiment: NCI-60 drug screen (SRB), NSCLC line NCI-H322M; type: cell-based, human; conditions: for LC50 / GI50: Homo sapiens
Method: as §1

A549/ATCC = experiment: NCI-60 drug screen (SRB), NSCLC line A549/ATCC; type: cell-based, human; conditions: for LC50 (concentration killing 50% of cells) / GI50: Homo sapiens
Method: as §1

NCI-H226 = experiment: NCI-60 drug screen (SRB), NSCLC line NCI-H226; type: cell-based, human; conditions: for GI50 / CC50: Homo sapiens; for CC50: read-out: LC50 (the source's name)
Method: as §1

[1] = system: PARP-1 mRNA expression in A3 cells; experiment: Quantitative RT-PCR of PARP-1 in treated A3 cells; type: cell-based, human
Text: RNA was isolated from cells with the TRIzol (Invitrogen) reagent […], and this was followed by RNA clean up with the RNeasy Minikit (QIAGEN). cDNA was produced with the First Strand cDNA Synthesis Kit (Roche). Real-time quantitative PCR reactions were set up in triplicate with the Brilliant II SYBR Green QPCR Master Mix (Stratagene) and run on an Mx3000P QPCR System (Stratagene).

A3 clone = experiment: Sphere formation and cell viability assay in A3 clone; type: cell-based, human; conditions: treated A3 clone; for sphere formation: serum free medium with bFGF and EGF (10 ng/ml)
[2] = 48 hours drug exposure, SRB, read-out: GI50
[3] = NCI in vitro 60-cell lines Drug Screen, read-out: -Log GI50 (converted)

| SMILES | TGI (HOP-62; 48 hours drug exposure, SRB) | GI50 (HOP-62; [2]) | CC50 (HOP-62; 48 hours drug exposure, SRB) | GI50 (HOP-62; [3]) | TGI (EKVX; 48 hours drug exposure, SRB) | LC50 (EKVX; 48 hours drug exposure, SRB) | GI50 (EKVX; [2]) | GI50 (EKVX; [3]) | pIC50 (HEL299 cells) | TGI (NCI-H522; 48 hours drug exposure, SRB) | GI50 (NCI-H522; [2]) | GI50 (NCI-H522; [3]) | TGI (HOP-92; 48 hours drug exposure, SRB) | GI50 (HOP-92; [2]) | CC50 (HOP-92; 48 hours drug exposure, SRB) | GI50 (HOP-92; [3]) | LC50 (NCI-H322M; 48 hours drug exposure, SRB) | GI50 (NCI-H322M; [2]) | GI50 (NCI-H322M; [3]) | TGI (A549/ATCC; 48 hours drug exposure, SRB) | further results |
| --- | --- | --- | --- | --- | --- | --- | --- | --- | --- | --- | --- | --- | --- | --- | --- | --- | --- | --- | --- | --- | --- |
| O=C(CCN1CCCC1)Nc1ccc2c(c1)C(=O)c1cc(NC(=O)CCN3CCCC3)ccc1C2=O [NSC746366] | 11.6 µM | 2.48 µM | 45.4 µM | 2.51 µM | 20.4 µM | > 100 µM | 3.57 µM | 3.55 µM | 4.87 | 17.1 µM | 3.41 µM | 3.39 µM | 0.82 µM | 0.45 µM | 34.6 µM | 0.447 µM | 42 µM | 1.81 µM | 1.82 µM | 12.7 µM | CC50 (NCI-H522; 48 hours drug exposure, SRB): > 100 µM; TGI (NCI-H322M; 48 hours drug exposure, SRB): 10.9 µM; LC50 (concentration killing 50% of cells) (A549/ATCC; 48 hours drug exposure, SRB): 74.7 µM; GI50 (A549/ATCC; [2]): 2.2 µM; GI50 (A549/ATCC; [3]): 2.19 µM; TGI (NCI-H226; 48 hours drug exposure, SRB): 12.6 µM; GI50 (NCI-H226; [2]): 2.72 µM; CC50 (NCI-H226; 48 hours drug exposure, SRB): 58.3 µM; GI50 (NCI-H226; [3]): 2.69 µM |
| CN(C)CC(=O)Nc1ccc2c(c1)C(=O)c1cc(NC(=O)CN(C)C)ccc1C2=O [NSC746364] | 20.5 µM | 4.56 µM | 60.8 µM | 4.57 µM | 31.4 µM | 77.4 µM | 12.8 µM | 12.9 µM | 5.25 | 13.1 µM | 1.27 µM | 1.26 µM | 31.7 µM | 10.4 µM | 96.6 µM | 10.5 µM | 83.1 µM | 1.86 µM | 1.86 µM | 4.43 µM | CC50 (NCI-H522; 48 hours drug exposure, SRB): 66.4 µM; TGI (NCI-H322M; 48 hours drug exposure, SRB): 4.91 µM; LC50 (concentration killing 50% of cells) (A549/ATCC; 48 hours drug exposure, SRB): > 100 µM; GI50 (A549/ATCC; [2]): 1.45 µM; GI50 (A549/ATCC; [3]): 1.45 µM; TGI (NCI-H226; 48 hours drug exposure, SRB): 32.4 µM; GI50 (NCI-H226; [2]): 15.5 µM; CC50 (NCI-H226; 48 hours drug exposure, SRB): 67.4 µM; GI50 (NCI-H226; [3]): 15.5 µM |
| CCN(CC)CCC(=O)Nc1ccc2c(c1)C(=O)c1cc(NC(=O)CCN(CC)CC)ccc1C2=O [NSC746365] | 5.80 µM | 1.73 µM | 24 µM | 1.74 µM | 11.0 µM | 34.6 µM | 3.05 µM | 3.02 µM | 5.14 | 4.59 µM | 1.4 µM | 1.38 µM | 0.06 µM | 0.01 µM | 3.48 µM | 0.0148 µM | 4.71 µM | 2.85 µM | 2.82 µM | 3.95 µM | CC50 (NCI-H522; 48 hours drug exposure, SRB): 19.3 µM; LC50 (concentration killing 50% of cells) (A549/ATCC; 48 hours drug exposure, SRB): 15.5 µM; GI50 (A549/ATCC; [2]): 1.44 µM; GI50 (A549/ATCC; [3]): 1.45 µM; TGI (NCI-H226; 48 hours drug exposure, SRB): 20.3 µM; GI50 (NCI-H226; [2]): 6.56 µM; CC50 (NCI-H226; 48 hours drug exposure, SRB): 45.9 µM; GI50 (NCI-H226; [3]): 6.61 µM |
| CN1CCN(Cc2nc3ccc4c(c3[nH]2)C(=O)c2ccccc2C4=O)CC1 [NSC749235] | 30.5 µM | 19.4 µM | 95.4 µM | 9.33 µM | 28.8 µM | > 100 µM | 6.69 µM | 6.76 µM | 4.71 | 29.0 µM | 13.8 µM | 13.8 µM | 91.8 µM | 7.97 µM | > 100 µM | 7.94 µM | > 100 µM | 8.7 µM | 8.71 µM | 24.3 µM | expression levels of PARP-1 (mRNA) [1]: inhibit the expression levels of PARP-1; CC50 (NCI-H522; 48 hours drug exposure, SRB): 61 µM; TGI (NCI-H322M; 48 hours drug exposure, SRB): 43.3 µM; cell growth / cell viability (A3 clone): inhibit the cell growth; sphere formation (A3 clone): effectively block the sphere formation; LC50 (concentration killing 50% of cells) (A549/ATCC; 48 hours drug exposure, SRB): 67.2 µM; GI50 (A549/ATCC; [2]): 7.58 µM; GI50 (A549/ATCC; [3]): 7.59 µM; TGI (NCI-H226; 48 hours drug exposure, SRB): 31.1 µM; GI50 (NCI-H226; [2]): 8.32 µM; CC50 (NCI-H226; 48 hours drug exposure, SRB): > 100 µM; GI50 (NCI-H226; [3]): 8.32 µM |
| Cc1ccc(C(=O)Nc2c(NC(=O)CCl)ccc3c2C(=O)c2ccccc2C3=O)cc1 [NSC749232] | 9.49 µM | 2.97 µM | 24.4 µM | 2.95 µM | 14.9 µM | > 100 µM | 1.98 µM | 2 µM | 4.57 | 2.03 µM | 8.95 µM | 0.891 µM | 31.7 µM | 9.73 µM | > 100 µM | 9.77 µM | 45.4 µM | 3.76 µM | 3.8 µM | 29.2 µM | expression levels of PARP-1 (mRNA) [1]: inhibit the expression levels of PARP-1; TGI (NCI-H322M; 48 hours drug exposure, SRB): 13.7 µM; cell growth / cell viability (A3 clone): inhibit the cell growth; sphere formation (A3 clone): effectively block the sphere formation; LC50 (concentration killing 50% of cells) (A549/ATCC; 48 hours drug exposure, SRB): > 100 µM; GI50 (A549/ATCC; [2]): 12.3 µM; GI50 (A549/ATCC; [3]): 12.3 µM; TGI (NCI-H226; 48 hours drug exposure, SRB): 20.8 µM; GI50 (NCI-H226; [2]): 8.81 µM; CC50 (NCI-H226; 48 hours drug exposure, SRB): 49.1 µM; GI50 (NCI-H226; [3]): 8.91 µM |
